Laboratory results published in patent publication US11883413B2, “Inhibition of thymine DNA glycosylase in the treatment of cancer” (Institute For Cancer Research, priority 2013, dated 2024).

What was measured:
SK28 cells = test: MTS cell viability assay; type: cell-based; settings: for cell viability of SK28 cells: concentration-dependent, quadruplicate
Experimental: (§1) Tests were conducted in quadruplicate.

TDG [1] = biological target: T1, TDG (Homo sapiens, UniProt Q13569); test: standard (conventional) radioactive-based glycosylase assay; type: biochemical; settings: tested at 100 nM, 10 μM and 1 mM
Excerpt: (§2) (A) Schematic of the molecular beacon assay for G:T repair.
(§3) This assay was optimized for a 96-well and 384-well format. Upon screening the ICCB known bioactive library (approximately 500 compounds) and the Johns Hopkins clinical compound library (approximately 1500 drugs), eighteen and fourteen candidates, respectively (Tables 1 and 2) were identified. Some of these compounds confirmed TDG inhibition in a standard, radioactive-based glycosylase assay (FIG. 19).

SK28 MEL melanoma cells = test: clonogenic assay; type: cell-based
Experimental: as §1

TDG [2] = biological target: T1, TDG; test: TDG glycosylase activity in vitro (FIG. 24-25); type: biochemical
[3] = system: PC3 prostate cancer cells; test: MTS assay, prostate cancer cells; type: cell-based
Experimental: (§4) The TDG inhibitors, juglone and closantel, were tested for their ability to kill PC3 and LNCaP prostate cancer cells.

[4] = system: LNCaP prostate cancer cells; test: MTS assay, prostate cancer cells; type: cell-based
Experimental: as §4

cancer cells = test: 5caC levels on chemotherapeutic treatment combined with TDG downregulation/inhibition; type: cell-based; settings: for 5-carboxylcytosine levels, TDG inhibitor combined with temozolomide: combined with temozolomide treatment
Excerpt: Vincristin is an inhibitor of mitosis that arrests cells in metaphase; it is used as a chemotherapeutic agent for leukemia/lymphoma and melanoma.

[5] = system: PC3 prostate cancer cells; test: clonogenic assay, prostate cancer cells; type: cell-based
Experimental: as §4

[6] = system: LNCaP prostate cancer cells; test: clonogenic assay, prostate cancer cells; type: cell-based
Experimental: as §4

SK28 melanoma cells = test: 5-carboxylcytosine (5caC) immunofluorescence staining of cells; type: cell-based; settings: SK28 melanoma cells treated with compound
TDG [7] = biological target: T1, TDG; test: molecular beacon qPCR-based assay of TDG glycosylase activity (G:T / G:U repair), library screen; type: biochemical; settings: 0, 5, 50 and 500 μg/ml
Experimental: as §2
In the folded hairpin substrate, the fluorescence of 6-FAM, used as fluorescent label at the 5′ end, is quenched by a dabsyl “black hole” moiety at the 3′ end. Upon removal of the mismatched T or U by TDG, and incision of the resulting apurinic/apyrimidinic (AP site) by APE, a short oligonucleotide containing 6-FAM was released. The resulting fluorescence was monitored by real-time qPCR over a 2-hour incubation period at 37° C., providing a sensitive and quantitative measurement of repair activity.
as §3

[8] = combined with TDG downregulation (C8)

T1 sequence (Q13569 whole entry): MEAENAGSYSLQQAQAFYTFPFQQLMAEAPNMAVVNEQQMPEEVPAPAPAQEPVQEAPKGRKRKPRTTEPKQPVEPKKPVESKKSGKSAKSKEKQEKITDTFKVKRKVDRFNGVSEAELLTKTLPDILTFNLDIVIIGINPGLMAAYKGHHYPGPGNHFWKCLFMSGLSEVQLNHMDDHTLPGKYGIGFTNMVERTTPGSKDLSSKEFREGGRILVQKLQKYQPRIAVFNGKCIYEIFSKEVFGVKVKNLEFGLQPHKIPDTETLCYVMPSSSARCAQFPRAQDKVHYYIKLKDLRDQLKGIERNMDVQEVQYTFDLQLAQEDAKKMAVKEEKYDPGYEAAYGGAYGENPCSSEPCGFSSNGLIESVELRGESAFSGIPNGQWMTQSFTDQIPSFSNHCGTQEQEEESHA

Row | SMILES | cell viability of SK28 cells (SK28 cells) | inhibition of TDG activity, conventional glycosylase assay (TDG [1]) | relative potency in conventional glycosylase assay (TDG [1]) | clonogenic capacity of SK28 MEL melanoma cells (SK28 MEL melanoma cells) | inhibition of TDG glycosylase activity in vitro (TDG [2]) | proliferation of PC3 cells, MTS assay [3] | proliferation of LNCaP cells, MTS assay [4] | 5-carboxylcytosine levels, TDG inhibitor combined with temozolomide (cancer cells) | proliferation of PC3 cells, clonogenic assay [5] | proliferation of LNCaP cells, clonogenic assay [6] | 5caC staining in the nuclei of cells in culture (SK28 melanoma cells) | inhibition of TDG activity, molecular beacon assay for G:T repair (TDG [7]) | SK28 cell viability, cisplatin combined with TDG downregulation (SK28 cells; [8]) | 5caC levels, vincristine combined with TDG downregulation (cancer cells; [8]) | 5caC levels, vincristine alone (cancer cells; in the absence of TDG downregulation (pLKO))
1 | C=CC1=C(C(=O)O)N2C(=O)[C@@H](NC(=O)/C(=N\OCC(=O)O)c3csc(N)n3)[C@H]2SC1 [Cefixime, (6R,7R)-7-{[2-(2-amino-1,3-thiazol-4-yl)-2-(carboxymethoxyimino)acetyl]amino}-3-ethenyl-8-oxo-5-thia-1-azabicyclo[4.2.0]oct-2-ene-2-carboxylic acid] | reduce cell viability | inhibition of TDG activity | more potent than compound 2, closantel | reduction of clonogenic capacity | – | – | – | – | – | – | – | – | – | – | –
2 | Cc1cc(C(C#N)c2ccc(Cl)cc2)c(Cl)cc1NC(=O)c1cc(I)cc(I)c1O (stereo not drawn) [Closantel, 5′-Chloro-4′-(4-chloro-α-cyanobenzyl)-3,5-diiodo-2′-methylsalicylanilide, N-[5-Chloro-4-(4-chloro-α-cyanobenzyl)-2-methylphenyl]-2-hydroxy-3,5-diiodobenzamide] | reduce cell viability | inhibition of TDG activity | – | reduction of clonogenic capacity | inhibition of TDG glycosylase activity in vitro | stopped proliferation | stopped proliferation | highly elevated | stopped proliferation | stopped proliferation | increase 5caC staining | – | – | – | –
3 | O=C1C=CC(=O)c2c(O)cccc21 [Juglone, 5-hydroxynaphthoquinone] | reduce cell viability | – | – | reduction of clonogenic capacity | inhibition of TDG glycosylase activity in vitro | stopped proliferation | stopped proliferation | highly elevated | stopped proliferation | stopped proliferation | increase 5caC staining | Dose dependent inhibition | – | – | –
4 | N.N.[Cl][Pt][Cl] [cisplatin] | – | – | – | – | – | – | – | – | – | – | – | – | reduction of SK28 cell viability | – | –
5 | CC[C@]1(O)C[C@H]2CN(CCc3c([nH]c4ccccc34)[C@@](C(=O)OC)(c3cc4c(cc3OC)N(C=O)[C@H]3[C@@](O)(C(=O)OC)[C@H](OC(C)=O)[C@]5(CC)C=CCN6CC[C@]43[C@@H]65)C2)C1 [vincristine] | – | – | – | – | – | – | – | – | – | – | – | – | – | further increased | increase of 5caC levels
